From patent US20240091319A1, “DUAL-ADMINISTRATION METHODS FOR TREATING RESPIRATORY DISTRESS” (THE TRUSTEES OF THE STEVENS INSTITUTE OF TECHNOLOGY, priority 2021, published 2024)
Where no end group is shown, it is not given here. The star is where a group is joined. Biotin = O=C1N[C@H]2[C@H](CS[C@H]2CCCCC(=O)*)N1

Assays:
[1] = test system: alveolar-capillary barrier of heterogeneously flooded regions, isolated adult rat lung; experiment: Ventilation 'injury score' in the isolated adult rat lung (Method 2); conditions: flooding solution in normal saline with 5% albumin; solutes at about the concentrations present in 1% SURVANTA; FIG. 2A
Text: Solutes are at about the same concentrations as present in 1% […]® solution. The surfactant protein B (SP-B) and SP-C used are isolated from pulmonary alveolar proteinosis patients; the SP-C, thus, is likely a mixture of fully-, partially- and non-palmitoylated peptide. Two forms of synthetic SP-C are used. One is sSP-Cff-leuc. […] Due to pre-dissolution of certain solutes, at high concentration, in non-aqueous solvents, the final dipalmitoylphosphatidylcholine (DPPC) solution contains 2% methanol; the final SP-B and SP-C solutions contain 1.6% chloroform and 0.8% methanol; and the final sSP-Cff-leuc solution contains 1.3% chloroform and 1.3% ethanol.
Base solution for all groups is normal saline.
Method 2. Ventilation ‘injury score’ in the isolated adult rat lung. An isolated adult rat lung is perfused with a physiologic solution (i.e. the solution is pumped through the lung vessels, including the capillaries) containing a low concentration of a fluorescent dye verified not to alter surface tension. A surface alveolus of the lung is micropunctured and a non-fluorescent test solution is injected. In experimental regions, a sufficiently large volume of liquid is injected to generate a pattern of heterogeneous alveolar flooding; in control regions, a sufficiently small volume of liquid is injected so that the liquid spontaneously clears from the region, leaving behind a micropunctured-but-aerated region. The region is imaged by confocal microscopy over a five minute baseline period at a constant transpulmonary pressure of 5 cm H2O. Five ventilation cycles are supplied to the lung at 0.33 Hz with the equivalent of a positive end-expiratory pressure of 15 cm H2O and with a tidal volume of 6 ml/kg body weight. The lung is then returned to a constant transpulmonary pressure of 5 cm H2O and imaged for 10 additional minutes. Alveolar liquid fluorescence at all time points is normalized by capillary fluorescence.
At baseline, alveolar liquid fluorescence (in flooded alveoli of experimental regions or in the liquid lining layer of control, aerated regions) is low and constant in all regions. Following ventilation, alveolar liquid fluorescence remains unchanged in aerated regions but continually increases with time in heterogeneously flooded regions. […] The increase above baseline in normalized alveolar liquid fluorescence at the last time point of the experiment is used as an injury score. The injury score, which indicates the rate of increase of normalized fluorescence following ventilation, correlates with the surface tension of the test solution.

lungs = conditions: administered to the lungs; U.S. Pat. Nos. 9,504,796 and 9,693,990; cited from earlier work
[2] = test system: alveoli of isolated rat lungs; conditions: injected into alveoli of isolated lungs in situ; SRB 1 nM-1,000 nM with albumin 3-12 w/v % in alveolar liquid; cited from earlier work
[3] = test system: alveoli of isolated rat lungs; experiment: Surface tension determination in the isolated adult rat lung (Method 1), solutions injected into alveoli in situ; conditions: for surface tension (T): alveolar administration
Method: Method 1. Surface tension determination in the isolated adult rat lung. In an isolated (excised) adult rat lung, the alveolar liquid is labeled with a fluorescent dye verified not to alter surface tension. T is determined as follows at a curved region of the alveolar air-liquid interface (e.g., the meniscus in a flooded alveolus or the corner of an aerated alveolus). Alveolar air pressure is determined with a transducer at the trachea of the constantly-inflated lung. Alveolar liquid phase pressure is determined by servo-nulling pressure measurement. The three-dimensional interfacial radius of curvature is determined by confocal microscopy. The surface tension is calculated according to the Laplace relation.
Alveoli of isolated rat lungs were injected (or flooded) in situ with various solutions or components and the effects on alveolar surface tension were compared. The accompanying FIG. 1 includes a composite bar chart comparing T values resulting from treatment with various solutions or components. Details, including the compositions and concentrations of any administered solutions or components, are shown below the x-axis of the chart. In more detail, the rat lungs were micropunctured, optionally flooded with red blood cell (RBC) homogenate alone, with albumin, or with albumin and SRB. […] Half of these samples receiving the second injection were additionally subjected to 50 ventilation cycles at the noted pressures. Additional experimental details are described in the Methods section of Nguyen, T L and Perlman, C E, “Sulforhodamine B and exogenous surfactant effects on alveolar surface tension under acute respiratory distress syndrome conditions,” J. Appl. Physiol. 2020, 129(6), 1505-1513, the entire content of which is incorporated herein by reference.
With reference to the accompanying FIG. 1 and its chart, the first data point (bar) corresponds to normal, aerated alveoli in normal lungs, as a control. The red blood cell homogenate was added to the remaining data points to simulate epithelial damage and hemorrhaging of the alveolar capillaries, as may be present in some cases of ARDS.

[4] = test system: rats with model lung injury; experiment: Therapeutic IV SRB administration in vivo in rats with model lung injury (injurious ventilation, then 4-hr support); conditions: rat, target plasma concentration 10 nM
Method: The therapeutic efficiencies of clinical method analogues, including tracheal instillation, intravascular (IV) administration, etc. of various surface tension-lowering components can be tested in an animal following generation of model lung injury in the animal. For example, therapeutic IV SRB administration was tested in vivo in rats with model lung injury, as follows. All animals were handled in accord with a protocol approved by the Stevens Institute of Technology Institutional Animal Care and Use Committee. First, the model lung injury was generated by ventilating an anesthetized rat with an excessive tidal (breath) volume (VT) of 42 ml/kg body weight and an end-expiratory pressure of zero for 15 min to physically injure the lungs. Then, modeling clinical treatment of a patient with lung injury, VT was reduced to a protective level of 6 ml/kg, end-expiratory pressure was increased to a positive, protective level of 2 or 10 cm H2O, and the rat continued to be supported by mechanical ventilation for 4 hrs. SRB was administered IV, targeting a plasma concentration of 10 nM, after the injury period and at the start of the support period, mimicking therapeutic administration after the development of respiratory distress but prior to supportive treatment by mechanical ventilation. Oxygenation was tracked during the 4-hr support period. At the end of the support period, the rat was sacrificed, the lungs were isolated, and alveolar T was determined in situ in the isolated lungs using Method 1, above. In lungs from rats sacrificed at the end of the 4-hr support period, T was determined in one aerated alveolus and one flooded alveolus.

[5] = test system: alveolar-capillary barrier of heterogeneously flooded regions, isolated adult rat lung; conditions: injected into alveoli of isolated lungs in situ; SRB 1 nM-1,000 nM with albumin 3-12 w/v % in alveolar liquid; cited from earlier work
[6] = low concentrations, in the presence of albumin; reported in an earlier patent publication; cited from earlier work
immature fetal rat lung = experiment: Opening pressure of the immature fetal rat lung after tracheal instillation (Method 3); conditions: 4-5 μl instilled in trachea, embryonic day 18 or 19; with 5% albumin; 1% SURVANTA, 0.0005% SP-C; FIG. 3
Method: Solution (4-5 μl), with solutes as specified, is instilled in the trachea of the fluid-filled immature (embryonic day 18 or 19) fetal rat lung. The pressure required to inflate the fetal rat lung for the first time is proportional to surface tension. […] The sSP-Cff-ion lock used is not biotinylated and is dissolved directly in normal saline without additional solvents. n=1 or 2/group.
Method 3. Opening pressure of the immature fetal rat lung. To inflate the initially liquid-filled fetal lung for the first time, the pressure applied at the trachea must be sufficient to overcome a capillary force that is proportional to the surface tension of the liquid in the lung. Thus, following instillation of a test solution in the trachea of the immature fetal rat lung, the opening pressure of the lung is indicative of the surface tension of the test solution. At embryonic day 18 or 19 (term=day 22), a fetus is delivered from a pregnant rat by uterotomy. […] The opening pressure that causes air to flow into the lungs is recorded, and is proportional to the solution surface tension.

adult rat lung = experiment: Facilitation of dilute […] by negatively charged solutes in the adult rat lung; conditions: solute at 5 w/v %
Method: Method 1. […] Alveolar air pressure is determined with a transducer at the trachea of the constantly-inflated lung. Alveolar liquid phase pressure is determined by servo-nulling pressure measurement.

## CCCCCCCCCCCCCCCC(=O)OC[C@H](COP(=O)([O-])OCC[N+](C)(C)C)OC(=O)CCCCCCCCCCCCCCC [DPPC, dipalmitoylphosphatidylcholine, reference compound]
[1]
  injury score (thus surface tension): not those containing DPPC or SP-B

## CCN(CC)c1ccc2c(-c3ccc(S(=O)(=O)O)cc3S(=O)(=O)[O-])c3ccc(=[N+](CC)CC)cc-3oc2c1 [SRB, sulforhodamine B]
lungs
  redistribution of edema liquid among alveoli: promoting equitable redistribution of edema liquid among alveoli
  surface tension: capable of lowering surface tension
[2]
  surface tension: lower surface tension
[3]; RBC homogenate plus albumin, FIG. 1
  speed of T lowering compared with exogenous surfactant: acts faster than exogenous surfactant
[3]; T increased by cell debris
  surface tension (T): reduce T
[3]; T increased by secretory phospholipase A2 (sPLA2)
  surface tension (T): reduce T
[3]; alveoli flooded with RBC homogenate, albumin and SRB included, FIG. 1 bars 4, 7, 8
  alveolar surface tension (T): immediately decreased/normalized
[4]
  plasma markers of lung injury and inflammation: reduce plasma markers of lung injury and inflammation
  ventilation-induced lung injury (VILI): reduce VILI
[4]; after injury period, end of 4-hr support period
  alveolar surface tension (T), determined in isolated lungs after sacrifice: reduce surface tension specifically in flooded/injured alveoli
[4]; tracked during 4-hr support period
  oxygenation: improve oxygenation
[5]
  ventilation injury of flooded alveoli: protect against ventilation injury of flooded alveoli

## GIPFFPVHLKRLKLLLLLLLLILLLILGALLMGL (SEQ ID NO:2) (sSP-Cff-leuc)
[6]
  surface tension in the lungs: can lower surface tension in the lungs
[1]
  injury score (thus surface tension): lower injury score

## GIPFFPVHLKRLLIVVVVVELIVKVIVGALLMGL (SEQ ID NO:3) (sSP-Cff-ion lock)
Immature fetal rat lung
  opening pressure (proportional to surface tension), compared with 100% SURVANTA without albumin: at least as effective as 100% SURVANTA in the absence of albumin
[6]
  surface tension in the lungs: can lower surface tension in the lungs

## fibrinogen
Adult rat lung
  facilitation of the surface activity of 1 vol % SURVANTA: also facilitate 1 vol % SURVANTA®

## rhodamine WT
lungs
  redistribution of edema liquid among alveoli: promoting equitable redistribution of edema liquid among alveoli
  surface tension: capable of lowering surface tension

## sSP-Cff-ion lock-B: variant of sSP-Cff-ion lock with a biotinylated N-terminal (Biotin-GIPFFPVHLKRLLIVVVVVELIVKVIVGALLMGL)
[6]
  surface tension in the lungs: can lower surface tension in the lungs
[1]
  injury score (thus surface tension): lower injury score

B1: SP-B: surfactant protein B isolated from pulmonary alveolar proteinosis patients (protein, UniProt P07988 201-279, looked up)
Pulmonary …: FPIPLPYCWLCRALIKRIQAMIPKGALAVAVAQVCRVVPLVAGGICQCLAERYSVILLDTLLGRMLPQLVCRLVLRCSM
modifications: Pulmonary surfactant-associated protein B
notes: surfactant protein B isolated from pulmonary alveolar proteinosis patients
[1]
  injury score (thus surface tension): not those containing DPPC or SP-B
